Assay results: PMC10585773, “Green synthesis of highly functionalized heterocyclic bearing pyrazole moiety for cancer-targeted chemo/radioisotope therapy” (BMC Chemistry, 2023)

Assays:
HCT-116 = experiment: MTT assay, in-vitro cytotoxicity against HCT-116; format: cell-based; conditions: Homo sapiens, HCT-116 colorectal carcinoma cells, scale: 1–10 very strong, 11–20 strong, 21–50 moderate, 51–100 weak, above 100 non-cytotoxic
From the text: (§1) Hepatocellular carcinoma (HepG2), and colorectal carcinoma (HCT-116). The cell lines were obtained from ATCC via Holding company for biological products and vaccines (VACSERA), Cairo, Egypt.
(§2) The reagents RPMI-1640 medium, MTT and DMSO (sigma co., St. Louis, USA), Fetal Bovine serum (GIBCO, UK). 5-Fluorouracil was used as a standard anticancer drug for comparison.
(§3) HepG2 and (HCT-116 were used to determine the inhibitory effects of compounds on cell growth using the MTT assay. The relative cell viability in percentage was calculated as (A570 of treated samples/A570 of untreated sample) X 100.

HepG2 = experiment: MTT assay, in-vitro cytotoxicity against HepG2; format: cell-based; conditions: Homo sapiens, HepG2 hepatocellular carcinoma cells, scale: 1–10 very strong, 11–20 strong, 21–50 moderate, 51–100 weak, above 100 non-cytotoxic
From the text: as §1, §2, §3

N#Cc1c(N)nc2c(c(-c3ccccc3)nn2-c2ccccc2)c1N [Compound 2, 4,6-Diamino-1,3-diphenyl-1H-pyrazolo[3,4-b]pyridine-5-carbonitrile]
IC50 (HCT-116): 7.7 ± 1.8 µM | IC50 (HepG2): 9.2 ± 2.8 µM

NC(=O)c1c(N)nc2c(c(-c3ccccc3)nn2-c2ccccc2)c1N [Compound 3, 4,6-Diamino-1,3-diphenyl-1H-pyrazolo[3,4-b]pyridine-5-carboxamide]
IC50 (HCT-116): 29.4 ± 2.3 µM | IC50 (HepG2): 22.8 ± 2.1 µM

Nc1c(C(=O)O)[nH]c2c1c(-c1ccccc1)nn2-c1ccccc1 [Compound 4, 4-Amino-1,3-diphenyl-1,6-dihydropyrrolo[2,3-c]pyrazole-5-carboxylic acid]
IC50 (HCT-116): 15.2 ± 2.4 µM | IC50 (HepG2): 14.5 ± 2.8 µM

Nc1n[nH]c2c1c(-c1ccccc1)nn2-c1ccccc1 [Compound 5, 4,6-Diphenyl-1,6-dihydropyrazolo[3,4-c]pyrazol-3-amine]
IC50 (HCT-116): 13.8 ± 3.9 µM | IC50 (HepG2): 8.8 ± 5.1 µM

O=c1[nH]cc(F)c(=O)[nH]1 [Compound 5-Fu, 5-Fluorouracil, reference compound]
IC50 (HCT-116): 5.35 ± 0.3 µM | IC50 (HepG2): 7.86 ± 0.5 µM

Nc1nc(=O)[nH]c2c1c(-c1ccccc1)nn2-c1ccccc1 [Compound 6, 4-Amino-1,3-diphenyl-1,7-dihydro-6H-pyrazolo[3,4-d]pyrimidin-6-one]
IC50 (HCT-116): 51 ± 2.7 µM | IC50 (HepG2): 91.4 ± 4.2 µM

Nc1nc(=S)[nH]c2c1c(-c1ccccc1)nn2-c1ccccc1 [Compound 7, 4-Amino-1,3-diphenyl-1,7-dihydro-6H-pyrazolo[3,4-d]pyrimidine-6-thione]
IC50 (HCT-116): 13.1 ± 2.3 µM | IC50 (HepG2): 10.2 ± 2.1 µM

CCOc1nc(-c2ccccc2)nc2c1c(-c1ccccc1)nn2-c1ccccc1 [Compound 8, 4-Ethoxy-1,3,6-triphenyl-1H-pyrazolo[3,4-d]pyrimidine]
IC50 (HCT-116): 17.4 ± 3.9 µM | IC50 (HepG2): 12.1 ± 5.1 µM

Nc1nc(-c2c(-c3ccccc3)nn(-c3ccccc3)c2N)nc2c1c(-c1ccccc1)nn2-c1ccccc1 [Compound 9, 6-(5-Amino-1,3-diphenyl-1H-pyrazol-4-yl)-1,3-diphenyl-1H-pyrazolo[3,4-d]pyrimidin-4-amine]
IC50 (HCT-116): 33.6 ± 2.1 µM | IC50 (HepG2): 55.7 ± 2.7 µM
